Measured values from ChEMBL document CHEMBL5465560, “Selectivity Literature for EUbOPEN Chemogenomic Library” (2024).

Columns and labels:
[1] = biological target: Vascular endothelial growth factor receptor 3 (Homo sapiens, UniProt P35916); test: Selectivity interaction (KinomeScan (DiscoverX)) EUB0000229b FLT4; conditions: at 10 µM
[2] = biological target: Serine/threonine-protein kinase 33 (Homo sapiens) (UniProt Q9BYT3); test: Selectivity interaction (KinomeScan (DiscoverX)) EUB0000655a STK33; conditions: at 10 µM
[3] = biological target: Casein kinase II subunit alpha (Homo sapiens, UniProt P68400); test: Selectivity interaction (ProQinase) EUB0000171b CSNK2A1
[4] = biological target: Serine/threonine-protein kinase MARK2 (Homo sapiens) (UniProt Q7KZI7); test: Selectivity interaction (Millipore kinase profiler) EUB0000124b MARK2; conditions: at 10 µM
[5] = biological target: Nuclear body protein SP140 (Homo sapiens) (UniProt Q13342); test: Selectivity interaction (Bromodomain panel (DSF asssay)) EUB0000270b SP140
[6] = biological target: T1, Serine/threonine-protein kinase D2 (Homo sapiens) (UniProt Q9BZL6); test: Selectivity interaction (ActivX KiNativ screen (kinase selectivity in THP-1 cell lysates)) EUB0000639a PRKD2; format: subcellular; conditions: lysate
T1 sequence (whole entry): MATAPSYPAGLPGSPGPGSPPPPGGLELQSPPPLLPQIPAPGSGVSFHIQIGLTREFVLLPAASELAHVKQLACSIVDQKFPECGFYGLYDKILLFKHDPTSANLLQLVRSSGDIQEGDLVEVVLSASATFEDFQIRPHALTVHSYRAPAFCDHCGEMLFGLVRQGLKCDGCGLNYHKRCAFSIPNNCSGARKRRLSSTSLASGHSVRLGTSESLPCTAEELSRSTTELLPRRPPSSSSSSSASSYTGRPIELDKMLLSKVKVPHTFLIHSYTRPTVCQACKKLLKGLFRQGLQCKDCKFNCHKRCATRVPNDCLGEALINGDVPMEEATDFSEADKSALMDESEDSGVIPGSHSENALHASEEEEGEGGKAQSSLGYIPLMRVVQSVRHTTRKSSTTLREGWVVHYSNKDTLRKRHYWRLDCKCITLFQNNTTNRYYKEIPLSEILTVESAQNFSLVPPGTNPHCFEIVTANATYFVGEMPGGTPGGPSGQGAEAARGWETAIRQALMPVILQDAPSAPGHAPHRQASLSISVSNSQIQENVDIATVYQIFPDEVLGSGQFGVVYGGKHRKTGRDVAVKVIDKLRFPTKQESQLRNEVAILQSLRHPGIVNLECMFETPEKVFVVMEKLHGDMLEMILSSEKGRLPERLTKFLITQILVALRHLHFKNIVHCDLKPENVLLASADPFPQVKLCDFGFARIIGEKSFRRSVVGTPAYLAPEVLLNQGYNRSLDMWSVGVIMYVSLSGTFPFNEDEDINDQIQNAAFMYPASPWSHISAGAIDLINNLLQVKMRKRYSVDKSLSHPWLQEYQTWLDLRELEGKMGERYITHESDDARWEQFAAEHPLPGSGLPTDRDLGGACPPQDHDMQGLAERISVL

[7] = biological target: T2, Serine/threonine-protein kinase Sgk3 (Homo sapiens) (UniProt Q96BR1); test: Selectivity interaction (KinomeScan (DiscoverX)) EUB0000607a SGK3; conditions: at 10 µM
T2 sequence (whole entry): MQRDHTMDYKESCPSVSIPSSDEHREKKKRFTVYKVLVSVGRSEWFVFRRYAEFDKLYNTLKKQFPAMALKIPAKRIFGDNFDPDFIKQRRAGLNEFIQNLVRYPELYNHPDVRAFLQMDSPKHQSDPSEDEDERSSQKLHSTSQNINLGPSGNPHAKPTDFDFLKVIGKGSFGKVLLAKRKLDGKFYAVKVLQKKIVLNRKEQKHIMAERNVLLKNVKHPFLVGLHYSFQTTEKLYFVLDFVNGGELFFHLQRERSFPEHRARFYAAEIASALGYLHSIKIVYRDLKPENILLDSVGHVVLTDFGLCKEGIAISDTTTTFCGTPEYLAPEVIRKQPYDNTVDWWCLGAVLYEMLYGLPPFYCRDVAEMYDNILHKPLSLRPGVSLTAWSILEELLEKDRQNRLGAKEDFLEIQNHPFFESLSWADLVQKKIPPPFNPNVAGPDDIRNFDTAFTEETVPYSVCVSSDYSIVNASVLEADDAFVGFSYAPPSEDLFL

[8] = biological target: T3, Serine/threonine-protein kinase Chk1 (Homo sapiens) (UniProt O14757); test: Selectivity interaction (KinomeScan (DiscoverX)) EUB0001049a CHEK1; conditions: at 1 µM
T3 sequence (whole entry): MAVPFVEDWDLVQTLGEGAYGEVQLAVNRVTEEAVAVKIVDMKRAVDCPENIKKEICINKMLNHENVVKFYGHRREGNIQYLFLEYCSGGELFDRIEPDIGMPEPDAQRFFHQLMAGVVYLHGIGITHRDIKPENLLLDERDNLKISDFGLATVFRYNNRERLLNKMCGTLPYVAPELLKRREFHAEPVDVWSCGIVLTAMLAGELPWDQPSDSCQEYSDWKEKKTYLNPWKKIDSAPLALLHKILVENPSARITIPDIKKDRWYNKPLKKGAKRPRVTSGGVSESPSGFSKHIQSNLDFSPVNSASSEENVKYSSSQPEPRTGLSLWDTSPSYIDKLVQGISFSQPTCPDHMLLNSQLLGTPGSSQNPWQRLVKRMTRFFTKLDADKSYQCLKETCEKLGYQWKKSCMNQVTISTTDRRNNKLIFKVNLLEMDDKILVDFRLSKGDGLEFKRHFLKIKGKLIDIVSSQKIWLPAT

[9] = biological target: Death-associated protein kinase 3 (Homo sapiens) (UniProt O43293); test: Selectivity interaction (Ambit KINOMEscan and KiNATiv profiling in Jurkat cells) EUB0000090b DAPK3; format: cell-based; conditions: at 1 µM
[10] = biological target: Serine/threonine-protein kinase PLK2 (Homo sapiens, UniProt Q9NYY3); test: Selectivity interaction (Ambit KINOMEscan and KiNATiv profiling in Jurkat cells) EUB0000090b PLK2; format: cell-based; conditions: at 1 µM
Chain of Serine/threonine-protein kinase PLK2 (Q9NYY3 whole entry, looked up): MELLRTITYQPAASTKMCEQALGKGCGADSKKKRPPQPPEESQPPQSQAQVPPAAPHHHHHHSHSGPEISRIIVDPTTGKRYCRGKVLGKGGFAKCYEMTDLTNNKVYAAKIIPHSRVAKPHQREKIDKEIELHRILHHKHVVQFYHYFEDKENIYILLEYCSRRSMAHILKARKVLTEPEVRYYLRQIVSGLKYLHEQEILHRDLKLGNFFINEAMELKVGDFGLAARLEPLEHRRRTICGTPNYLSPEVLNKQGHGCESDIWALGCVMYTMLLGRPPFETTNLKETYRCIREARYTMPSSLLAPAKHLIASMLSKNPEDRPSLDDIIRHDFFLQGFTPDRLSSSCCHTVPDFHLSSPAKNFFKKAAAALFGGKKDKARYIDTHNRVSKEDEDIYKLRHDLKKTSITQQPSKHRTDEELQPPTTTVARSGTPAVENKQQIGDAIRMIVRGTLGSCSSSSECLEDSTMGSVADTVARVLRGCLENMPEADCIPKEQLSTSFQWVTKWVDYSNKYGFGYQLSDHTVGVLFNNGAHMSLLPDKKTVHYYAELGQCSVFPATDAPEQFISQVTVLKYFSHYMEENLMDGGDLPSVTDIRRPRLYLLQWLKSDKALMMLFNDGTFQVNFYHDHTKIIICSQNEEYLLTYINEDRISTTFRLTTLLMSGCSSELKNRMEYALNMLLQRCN

Chain of Casein kinase II subunit alpha (P68400 whole entry, looked up): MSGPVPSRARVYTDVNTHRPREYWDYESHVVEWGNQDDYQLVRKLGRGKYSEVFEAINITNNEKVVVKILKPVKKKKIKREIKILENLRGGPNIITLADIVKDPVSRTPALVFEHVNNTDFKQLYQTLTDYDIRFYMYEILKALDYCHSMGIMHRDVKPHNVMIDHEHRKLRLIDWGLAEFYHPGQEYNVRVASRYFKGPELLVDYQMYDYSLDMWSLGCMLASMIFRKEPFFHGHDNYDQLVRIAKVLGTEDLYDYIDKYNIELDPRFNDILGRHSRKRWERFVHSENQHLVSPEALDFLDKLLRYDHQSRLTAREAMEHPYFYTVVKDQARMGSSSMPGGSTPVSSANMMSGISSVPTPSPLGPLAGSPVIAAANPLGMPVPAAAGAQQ
Chain of Serine/threonine-protein kinase 33 (Homo sapiens) (Q9BYT3 whole entry, looked up): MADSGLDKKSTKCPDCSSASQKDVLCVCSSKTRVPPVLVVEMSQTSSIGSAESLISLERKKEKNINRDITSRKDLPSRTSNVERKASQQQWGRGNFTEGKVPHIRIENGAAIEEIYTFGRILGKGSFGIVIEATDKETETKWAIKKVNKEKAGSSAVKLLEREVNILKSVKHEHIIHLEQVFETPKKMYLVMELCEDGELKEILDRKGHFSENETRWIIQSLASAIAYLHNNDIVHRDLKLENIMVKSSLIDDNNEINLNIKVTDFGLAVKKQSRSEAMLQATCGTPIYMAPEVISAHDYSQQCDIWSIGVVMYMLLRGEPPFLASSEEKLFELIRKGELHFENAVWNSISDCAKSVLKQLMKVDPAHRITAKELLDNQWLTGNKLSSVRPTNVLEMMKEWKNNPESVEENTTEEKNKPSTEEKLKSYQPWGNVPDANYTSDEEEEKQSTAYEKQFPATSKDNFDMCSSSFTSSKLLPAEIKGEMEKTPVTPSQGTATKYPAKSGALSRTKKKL
Chain of Death-associated protein kinase 3 (Homo sapiens) (O43293 whole entry, looked up): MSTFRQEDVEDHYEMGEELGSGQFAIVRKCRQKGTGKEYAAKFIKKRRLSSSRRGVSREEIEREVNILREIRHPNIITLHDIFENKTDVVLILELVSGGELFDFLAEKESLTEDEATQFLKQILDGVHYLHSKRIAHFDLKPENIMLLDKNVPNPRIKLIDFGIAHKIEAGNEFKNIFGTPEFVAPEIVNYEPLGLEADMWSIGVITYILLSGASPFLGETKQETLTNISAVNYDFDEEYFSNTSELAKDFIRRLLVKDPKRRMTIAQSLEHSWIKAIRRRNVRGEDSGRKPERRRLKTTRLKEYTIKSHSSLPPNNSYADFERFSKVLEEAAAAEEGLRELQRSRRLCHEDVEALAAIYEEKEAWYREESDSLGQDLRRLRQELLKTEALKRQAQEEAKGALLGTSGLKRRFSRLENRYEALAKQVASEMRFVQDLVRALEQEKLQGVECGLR
Chain of Nuclear body protein SP140 (Homo sapiens) (Q13342 whole entry): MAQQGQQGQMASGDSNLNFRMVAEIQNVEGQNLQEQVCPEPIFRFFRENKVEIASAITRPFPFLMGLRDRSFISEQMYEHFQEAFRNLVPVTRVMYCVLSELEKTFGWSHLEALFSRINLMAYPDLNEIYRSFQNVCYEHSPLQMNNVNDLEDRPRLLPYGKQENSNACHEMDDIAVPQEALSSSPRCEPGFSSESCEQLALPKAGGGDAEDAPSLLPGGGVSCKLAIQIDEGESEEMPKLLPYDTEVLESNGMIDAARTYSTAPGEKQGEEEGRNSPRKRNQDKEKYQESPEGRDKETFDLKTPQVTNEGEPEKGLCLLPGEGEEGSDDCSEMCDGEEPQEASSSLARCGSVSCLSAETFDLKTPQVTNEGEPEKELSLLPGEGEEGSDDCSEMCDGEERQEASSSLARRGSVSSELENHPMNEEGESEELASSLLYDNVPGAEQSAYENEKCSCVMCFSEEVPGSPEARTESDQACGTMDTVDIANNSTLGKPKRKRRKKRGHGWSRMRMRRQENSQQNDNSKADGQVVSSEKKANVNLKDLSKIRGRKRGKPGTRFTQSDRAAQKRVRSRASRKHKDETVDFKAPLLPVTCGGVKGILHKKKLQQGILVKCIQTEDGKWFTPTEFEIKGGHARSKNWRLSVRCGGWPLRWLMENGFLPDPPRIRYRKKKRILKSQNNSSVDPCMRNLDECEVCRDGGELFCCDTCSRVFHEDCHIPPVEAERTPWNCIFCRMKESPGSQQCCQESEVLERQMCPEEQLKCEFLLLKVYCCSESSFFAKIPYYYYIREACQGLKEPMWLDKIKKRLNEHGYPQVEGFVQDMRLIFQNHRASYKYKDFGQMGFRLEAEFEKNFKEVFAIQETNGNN
Chain of Serine/threonine-protein kinase MARK2 (Homo sapiens) (Q7KZI7 whole entry): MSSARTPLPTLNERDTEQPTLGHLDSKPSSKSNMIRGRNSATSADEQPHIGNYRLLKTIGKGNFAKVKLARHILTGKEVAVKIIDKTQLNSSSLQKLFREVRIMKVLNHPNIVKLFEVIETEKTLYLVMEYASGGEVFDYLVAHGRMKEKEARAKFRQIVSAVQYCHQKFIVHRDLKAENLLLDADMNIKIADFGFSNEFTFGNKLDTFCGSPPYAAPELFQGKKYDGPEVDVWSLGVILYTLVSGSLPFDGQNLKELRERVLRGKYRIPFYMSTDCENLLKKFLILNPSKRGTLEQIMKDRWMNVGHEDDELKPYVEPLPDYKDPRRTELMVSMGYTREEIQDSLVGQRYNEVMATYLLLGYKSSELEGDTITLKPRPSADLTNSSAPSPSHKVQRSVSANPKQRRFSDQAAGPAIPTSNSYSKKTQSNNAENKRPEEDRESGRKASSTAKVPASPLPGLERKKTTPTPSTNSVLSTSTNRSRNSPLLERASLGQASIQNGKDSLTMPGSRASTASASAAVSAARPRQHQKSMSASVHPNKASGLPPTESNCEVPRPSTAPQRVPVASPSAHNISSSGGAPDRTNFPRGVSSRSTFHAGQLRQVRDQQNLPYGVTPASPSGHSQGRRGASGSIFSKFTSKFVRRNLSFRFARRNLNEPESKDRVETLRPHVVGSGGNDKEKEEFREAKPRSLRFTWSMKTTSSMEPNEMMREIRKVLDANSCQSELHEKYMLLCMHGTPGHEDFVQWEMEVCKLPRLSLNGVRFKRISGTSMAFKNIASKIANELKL
Chain of Vascular endothelial growth factor receptor 3 (P35916 whole entry): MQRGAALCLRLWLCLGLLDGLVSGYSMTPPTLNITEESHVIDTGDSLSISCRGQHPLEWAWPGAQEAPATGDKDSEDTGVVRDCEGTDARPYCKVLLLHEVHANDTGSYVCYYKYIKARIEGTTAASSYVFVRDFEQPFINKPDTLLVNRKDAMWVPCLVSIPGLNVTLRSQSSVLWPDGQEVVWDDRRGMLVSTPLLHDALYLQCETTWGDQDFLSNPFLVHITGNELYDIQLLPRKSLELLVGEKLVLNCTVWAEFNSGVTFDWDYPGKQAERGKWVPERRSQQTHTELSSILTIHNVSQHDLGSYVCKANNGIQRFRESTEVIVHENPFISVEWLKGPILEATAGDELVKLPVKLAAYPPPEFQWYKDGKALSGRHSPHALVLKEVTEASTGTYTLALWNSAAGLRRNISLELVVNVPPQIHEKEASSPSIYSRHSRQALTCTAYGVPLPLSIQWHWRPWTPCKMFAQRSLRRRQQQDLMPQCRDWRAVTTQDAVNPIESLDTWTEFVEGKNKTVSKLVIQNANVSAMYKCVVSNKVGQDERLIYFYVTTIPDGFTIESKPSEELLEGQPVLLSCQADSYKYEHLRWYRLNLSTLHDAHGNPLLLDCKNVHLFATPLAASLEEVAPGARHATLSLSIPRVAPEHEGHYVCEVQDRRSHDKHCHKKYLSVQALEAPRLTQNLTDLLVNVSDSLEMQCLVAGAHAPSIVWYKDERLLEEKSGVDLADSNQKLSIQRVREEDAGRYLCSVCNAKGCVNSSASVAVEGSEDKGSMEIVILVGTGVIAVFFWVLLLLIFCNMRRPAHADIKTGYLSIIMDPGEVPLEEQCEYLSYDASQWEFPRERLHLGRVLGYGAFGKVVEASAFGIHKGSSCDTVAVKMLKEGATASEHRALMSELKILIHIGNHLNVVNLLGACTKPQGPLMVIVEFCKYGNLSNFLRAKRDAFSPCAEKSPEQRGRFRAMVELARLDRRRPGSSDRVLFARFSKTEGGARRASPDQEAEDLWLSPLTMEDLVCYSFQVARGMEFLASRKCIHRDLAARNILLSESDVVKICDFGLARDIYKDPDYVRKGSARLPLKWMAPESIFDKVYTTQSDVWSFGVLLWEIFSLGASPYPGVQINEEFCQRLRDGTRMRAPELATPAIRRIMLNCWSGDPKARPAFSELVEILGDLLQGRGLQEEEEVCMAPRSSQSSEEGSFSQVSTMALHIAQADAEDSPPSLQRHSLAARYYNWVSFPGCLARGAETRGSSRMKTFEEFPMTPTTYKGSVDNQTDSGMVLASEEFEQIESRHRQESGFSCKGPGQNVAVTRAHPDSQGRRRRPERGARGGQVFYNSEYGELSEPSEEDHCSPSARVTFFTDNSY

With COc1cc(N(C)c2ccnc3ccc(C(F)(F)F)cc23)cc(OC)c1OC the % binding [1] was 96%.

Molecule CN(C)CCOc1ccc(-c2nc(-c3ccncc3)c(-c3ccc4c(c3)CC/C4=N\O)[nH]2)cc1 has a % of control [2] of 88%.

With C=CC(=O)Nc1cccc(C(=O)Nc2ccc(Nc3cc(-c4[nH]c(SC)nc4C)ccn3)cc2)c1 the % of control ([3]; at 1 µM) was 92% and the % of control ([3]; at 5 µM) was 75%.

In the case of CC(=O)Nc1cccc(-n2c(=O)n(C3CC3)c(=O)c3c(Nc4ccc(I)cc4F)n(C)c(=O)c(C)c32)c1, the % of control [4] is reported as 116%.

Cc1cc(CN)cc(C)c1-c1ncn(C)c1-c1cncn1C was tested, and the dTM [5] was -1.11 K.

Molecule CC[C@@H]1[C@H](F)C(=O)N[C@@H]1COc1nccc2cc(C(N)=O)c(OC)cc12 [ZIMLOVISERTIB] has a % of inhibition ([6]; at 0.01 µM) of 1.1%, a % of inhibition ([6]; at 0.04 µM) of 12.3% and a % of inhibition ([6]; at 0.2 µM) of 6.8%. The % of inhibition ([6]; at 1 µM) was 11.9% and the % of inhibition ([6]; at 5 µM) was 5.6%.

For CNC(=O)Nc1ccc(-c2nc(N3CC4CCC(C3)O4)c3cnn(C4CCC5(CC4)OCCO5)c3n2)cc1, the % of control [7] was 100%.

COc1cc(Nc2nc(C)cc(-c3cnn4nc(OC)ccc34)n2)cc(C(F)(F)F)c1 was tested, and the % of control [8] was 97%.

For CN(C)C/C=C/C(=O)Nc1ccc(C(=O)N2CCCC(Nc3ncc(Cl)c(-c4c[nH]c5ccccc45)n3)C2)cc1 (stereo not given), the % of control [9] was 100% and the % of control [10] was 89%.
